# Assays:
# primary keratinocytes = assay: [3H]Glycerol uptake; type: cell-based, mouse; settings: 24 hours
# Protocol: Confluent primary keratinocytes were incubated for 30, 60, 90, 120, 300 or 600 seconds with SFKM containing 20 mM HEPES (for additional pH buffering), 1 μCi/mL [^3H]glycerol and 0.1% DMSO (control) or 100 nM PMA. Reactions were terminated by washing three times with ice-cold phosphate-buffered saline lacking divalent cations. The cells were subsequently solubilized in 0.3 M NaOH and aliquots of this extract subjected to liquid scintillation counting. Counts obtained from duplicate samples at each time point were averaged and graphed, and a linear equation was determined for each condition. Correlation coefficients obtained were typically 0.99 or greater (mean correlation coefficient for control was 0.992±0.002 and for PMA, 0.994±0.001). Slopes obtained from multiple experiments were averaged and analyzed statistically for significant differences between conditions.
# The linearity of glycerol uptake determined above allowed measurement of uptake at a single time point to determine the effects of other treatments on this process. Thus, confluent keratinocytes were preincubated for 30 minutes with 0.1% DMSO (control) or 100 nM PMA prior to measuring [^3H]glycerol uptake as above but at 5 minutes only. Similarly, near-confluent primary keratinocytes were incubated for 24 hours with SFKM containing various calcium concentrations prior to measurement of radiolabeled glycerol uptake for 5 minutes.
# Near-confluent keratinocyte cultures were incubated for 24 hours in SFKM (25 μM calcium) or SFKM containing 125 μM calcium (125 μM Ca^2+-SFKM) and the glycerol uptake assay performed as previously described in Zheng & Bollag (2003). Briefly, cells were incubated with SFKM containing 20 mM HEPES (for additional pH buffering) and 1 μCi/mL [^3H] glycerol for 5 minutes, since it has previously been shown that this time point is in the linear range of [^3H]glycerol uptake (Zheng & Bollag (2003). Reactions were terminated by rapidly washing three times with ice-cold phosphate-buffered saline lacking divalent cations (PBS-). Cells were then solubilized in 0.3 M NaOH and [^3H]glycerol uptake quantified by liquid scintillation spectroscopy.
# keratinocytes = assay: Release of radiolabel from [14C]glycerol-labeled lipids by bacterial PLD (headgroup position); type: cell-based, mouse; settings: 125 μM calcium pretreatment 24 hours, means±SEM
# Protocol: Keratinocytes pretreated for 24 hours with control (25 μM calcium) or 125 μM calcium-containing medium were exposed to 0.4-0.5 μCi/mL [^14C]glycerol for an additional 30 minutes. Lipids were extracted into chloroform/methanol as described above. Dried lipid extracts were then solubilized in phospho lipase buffer (100 mM Tris, pH 7.4, 6 mM MgCl2+0.1% Triton-X100) by extensive vortexing and a short incubation at 37° C. and approximately half of each extract was transferred into a clean tube. Distilled water (untreated) or 1 IU/mL (final concentration) of Streptomyces chromofuscus PLD (Sigma, St. Louis, Mo.) diluted in distilled water (PLD-treated) was then added to each of the lipid extract samples, which were incubated at 37° C. for 60 minutes. Released headgroups were then separated from phospholipids by extraction into the aqueous layer, essentially according to the method of Folch. […] A portion of the upper aqueous layer was then collected and quantified by liquid scintillation spectrometry. PLD-released radioactivity in the aqueous phase was calculated as the amount released in the PLD-treated sample minus the amount detected in the corresponding untreated sample. […] This lipid extract was then separated by thin-layer chromatography and PG and phosphatidic acid in the samples quantified as above.
structure (smiles),measurement,setting,value
[Ca+2] [calcium],glycerol uptake relative to control,primary keratinocytes; 500 μM calcium pretreatment,approximately equivalent to the control value
same,glycerol uptake relative to control,primary keratinocytes; 1 mM calcium pretreatment,slight but not significant inhibition
same,increase in glycerol uptake relative to the 25 μM calcium control,primary keratinocytes; pre-exposure to 125 μM calcium,56%
same,increase in glycerol uptake relative to the 25 μM calcium control,primary keratinocytes; pre-exposure to 250 μM calcium,41%
same,radiolabel released into aqueous fraction by bacterial PLD from lipid extracts,keratinocytes; p<0.001,4.2±0.4 fold over the control level
same,radioactivity released by bacterial PLD from isolated PG,keratinocytes; p<0.01,3.3±0.5 fold over the control level

# Source: patent US8808715B1, “Methods and compositions for modulating keratinocyte function” (Georgia Regents Research Institute, Inc, priority 2004, dated 2014)
